Measurements published in US11566007B2, “Ras inhibitors” (Revolution Medicines, Inc., priority 2019, dated 2023).

Key:
[1] = system: NCI-H358 cells (K-Ras G12C); assay: Potency assay: pERK in NCI-H358 cells; format: cell-based, human; settings: Homo sapiens, NCI-H358; H358 KRAS G12C; read-out: pERK EC50
Outline: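 pERK decrease read by AlphaLISA SureFire p-ERK1/2 or In-Cell Western after 4 h compound exposure at 37 °C, 5% CO2.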

NCI-H358 (K-Ras G12C) = assay: CellTiter-Glo cell viability assay, NCI-H358; format: cell-based, human; settings: Homo sapiens, NCI-H358, 120 h, NCI-H358, 5-day treatment; class symbols; read-out: Additional H358 Cell Viability assay data (K-Ras G12C, IC50)
Outline: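 Cells seeded, compound added directly, 5-day exposure. Plates to RT ~30 min, CellTiter-Glo luminescence read. Normalized to DMSO avg (x100); 4-parameter logistic fit.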

K-Ras G12C = K-Ras G12C (Homo sapiens (Human), UniProt P01116+P62937, G12C); assay: Ras-Raf (BRAF RBD) disruption / FRET / MOA assay, KRAS G12C; format: biochemical; settings: KRAS G12C; Ras-Raf disruption/FRET/MOA assay; read-out: IC50* KRAS G12C FRET data
Chain of K-Ras G12C (P01116-2 other isoform, or with tags, fused parts or gaps G12C): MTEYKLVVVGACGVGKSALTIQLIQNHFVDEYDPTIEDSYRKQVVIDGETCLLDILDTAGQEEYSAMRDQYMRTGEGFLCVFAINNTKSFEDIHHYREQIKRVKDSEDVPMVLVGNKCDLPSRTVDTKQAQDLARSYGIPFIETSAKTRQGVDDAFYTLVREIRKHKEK
Chain of K-Ras G12C (P62937 whole entry): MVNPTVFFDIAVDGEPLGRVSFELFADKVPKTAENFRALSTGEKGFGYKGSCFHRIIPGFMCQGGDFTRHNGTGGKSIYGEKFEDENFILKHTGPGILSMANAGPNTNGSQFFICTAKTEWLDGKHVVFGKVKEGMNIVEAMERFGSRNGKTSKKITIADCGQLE
Outline: (§1)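 A 10-point, 3-fold dilution series topping at 30 μM final was incubated 3 h at 25° C with the Ras/cyclophilin A/BRAF RBD mixture.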

K-Ras G13C = K-Ras G13C (Homo sapiens (Human), UniProt P01116+P62937, G13C); assay: Ras-Raf (BRAF RBD) disruption / FRET / MOA assay, KRAS G13C; format: biochemical; settings: KRAS G13C; Ras-Raf disruption/FRET/MOA assay; read-out: IC50* KRAS G13C FRET data
Chain of K-Ras G13C (P01116-2 other isoform, or with tags, fused parts or gaps G13C): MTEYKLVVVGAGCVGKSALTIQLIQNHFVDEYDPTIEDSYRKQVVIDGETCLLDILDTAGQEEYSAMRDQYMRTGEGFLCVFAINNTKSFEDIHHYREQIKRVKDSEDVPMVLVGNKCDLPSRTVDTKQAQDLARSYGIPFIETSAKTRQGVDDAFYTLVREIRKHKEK
Chain of K-Ras G13C (P62937 whole entry): as the sequence (P62937 whole entry) above
Outline: as §1

KRAS G12S = KRAS G12S (Homo sapiens (Human), UniProt P01116+P62937, G12S); assay: Ras-Raf (BRAF RBD) disruption / FRET / MOA assay, KRAS G12S; format: biochemical; settings: Ras-Raf disruption/FRET/MOA assay; class symbols; read-out: KRAS G12S FRET data IC50
Chain of KRAS G12S (P01116-2 other isoform, or with tags, fused parts or gaps G12S): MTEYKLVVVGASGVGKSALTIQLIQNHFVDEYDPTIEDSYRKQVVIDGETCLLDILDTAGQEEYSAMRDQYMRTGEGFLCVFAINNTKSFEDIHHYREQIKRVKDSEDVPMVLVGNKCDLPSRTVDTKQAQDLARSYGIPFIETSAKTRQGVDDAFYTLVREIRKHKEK
Chain of KRAS G12S (P62937 whole entry): as the sequence (P62937 whole entry) above
Outline: as §1

KRAS G12D = KRAS G12D (Homo sapiens (Human), UniProt P01116+P62937, G12D); assay: Ras-Raf (BRAF RBD) disruption / FRET / MOA assay, KRAS G12D; format: biochemical; settings: Ras-Raf disruption/FRET/MOA assay; class symbols; read-out: KRAS G12D FRET data IC50
Chain of KRAS G12D (P01116-2 other isoform, or with tags, fused parts or gaps G12D): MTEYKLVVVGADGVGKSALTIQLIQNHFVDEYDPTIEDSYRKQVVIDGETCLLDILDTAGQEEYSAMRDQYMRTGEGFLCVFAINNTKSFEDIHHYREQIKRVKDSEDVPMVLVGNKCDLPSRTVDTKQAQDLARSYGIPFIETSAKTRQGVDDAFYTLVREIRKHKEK
Chain of KRAS G12D (P62937 whole entry): as the sequence (P62937 whole entry) above
Outline: as §1

KRAS G12V = KRAS G12V (Homo sapiens (Human), UniProt P01116+P62937, G12V); assay: Ras-Raf (BRAF RBD) disruption / FRET / MOA assay, KRAS G12V; format: biochemical; settings: read-out: IC50* KRAS G12V FRET data
Chain of KRAS G12V (P01116-2 other isoform, or with tags, fused parts or gaps G12V): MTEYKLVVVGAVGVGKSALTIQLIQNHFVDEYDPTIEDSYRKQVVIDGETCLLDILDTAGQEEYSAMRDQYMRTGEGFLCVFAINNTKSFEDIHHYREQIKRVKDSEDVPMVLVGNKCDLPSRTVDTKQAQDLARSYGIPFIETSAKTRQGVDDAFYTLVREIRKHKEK
Chain of KRAS G12V (P62937 whole entry): as the sequence (P62937 whole entry) above
Outline: as §1

KRAS WT = KRAS WT (Homo sapiens (Human), UniProt P01116+P62937); assay: Ras-Raf (BRAF RBD) disruption / FRET / MOA assay, KRAS WT; format: biochemical; settings: read-out: IC50* KRAS WT FRET data
Chain of KRAS WT (P01116-2 other isoform, or with tags, fused parts or gaps): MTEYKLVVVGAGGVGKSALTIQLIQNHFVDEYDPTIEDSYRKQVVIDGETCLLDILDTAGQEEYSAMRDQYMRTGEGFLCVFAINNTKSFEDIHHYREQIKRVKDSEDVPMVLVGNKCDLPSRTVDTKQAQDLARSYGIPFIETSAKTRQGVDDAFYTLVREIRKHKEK
Chain of KRAS WT (P62937 whole entry): as the sequence (P62937 whole entry) above
Outline: as §1

KRAS G13D = KRAS G13D (Homo sapiens (Human), UniProt P01116+P62937, G13D); assay: Ras-Raf (BRAF RBD) disruption / FRET / MOA assay, KRAS G13D; format: biochemical; settings: read-out: IC50* KRAS G13D FRET data
Chain of KRAS G13D (P01116-2 other isoform, or with tags, fused parts or gaps G13D): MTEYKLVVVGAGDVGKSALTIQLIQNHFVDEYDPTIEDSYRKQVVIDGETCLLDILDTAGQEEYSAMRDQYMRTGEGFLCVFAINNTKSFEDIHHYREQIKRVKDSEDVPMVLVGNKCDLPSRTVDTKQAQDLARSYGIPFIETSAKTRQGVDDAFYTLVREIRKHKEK
Chain of KRAS G13D (P62937 whole entry): as the sequence (P62937 whole entry) above
Outline: as §1

NRAS G12C = NRAS G12C (Homo sapiens (Human), UniProt P01111+P62937, G12C); assay: Ras-Raf (BRAF RBD) disruption / FRET / MOA assay, NRAS G12C; format: biochemical; settings: read-out: IC50* NRAS G12C FRET data
Chain of NRAS G12C (P01111 whole entry G12C): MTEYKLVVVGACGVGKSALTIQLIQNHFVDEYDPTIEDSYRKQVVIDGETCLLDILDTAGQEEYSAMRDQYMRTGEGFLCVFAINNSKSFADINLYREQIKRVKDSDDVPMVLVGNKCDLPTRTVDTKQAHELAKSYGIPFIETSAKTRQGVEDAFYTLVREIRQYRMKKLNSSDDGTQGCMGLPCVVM
Chain of NRAS G12C (P62937 whole entry): as the sequence (P62937 whole entry) above
Outline: as §1

Work on C=CC(=O)N1CC[C@H](C(=O)N(C)[C@H](C(=O)N[C@H]2Cc3cccc(c3)-c3ccc4c(c3)c(c(-c3cccnc3[C@H](C)OC)n4CC)CC(C)(C)COC(=O)[C@@H]3CCCN(N3)C2=O)C2CCC2)C1 (atropisomer, axis not shown) [Example A321] yielded an EC50 [1] of less than 5000 nM, an IC50 (NCI-H358 (K-Ras G12C)) of 10 to 100 nM and an IC50 (K-Ras G12C) of 100 to 1000 nM. The IC50 (K-Ras G13C) was 1000 to 10000 nM, the IC50 (KRAS G12S) was 1000 to 10000 nM and the IC50 (KRAS G12D) was greater than 10000 nM. The IC50 (KRAS G12V) was 1000 to 10000 nM, the IC50 (KRAS WT) was 1000 to 10000 nM and the IC50 (KRAS G13D) was 1000 to 10000 nM. The IC50 (NRAS G12C) was 100 to 1000 nM.

In the case of CCn1c(-c2cccnc2[C@H](C)OC)c2c3cc(ccc31)-c1csc(n1)C[C@H](NC(=O)[C@H](C(C)C)N1CCC3(CCN(C(=O)C#CC(C)(C)N(C)C)CC3)C1=O)C(=O)N1CCC[C@H](N1)C(=O)OCC(C)(C)C2 (atropisomer, axis not shown) [Example A322], the EC50 [1] is reported as less than 5000 nM, the IC50 (NCI-H358 (K-Ras G12C)) is reported as less than 10 nM and the IC50 (K-Ras G12C) is reported as less than 10 nM. For the same compound, the IC50 (K-Ras G13C) was 100 to 1000 nM, the IC50 (KRAS G12S) was greater than 10000 nM and the IC50 (KRAS G12D) was greater than 10000 nM. It also gave an IC50 (KRAS G12V) greater than 10000 nM, an IC50 (KRAS WT) greater than 10000 nM and an IC50 (KRAS G13D) greater than 10000 nM. The IC50 (NRAS G12C) was 10 to 100 nM.

In the case of CCn1c(-c2cccnc2[C@H](C)OC)c2c3cc(ccc31)-c1csc(n1)C[C@H](NC(=O)[C@H](C(C)C)N1CCC3(CN(C(=O)C#CC(C)(C)N(C)C)C3)C1=O)C(=O)N1CCC[C@H](N1)C(=O)OCC(C)(C)C2 (atropisomer, axis not shown) [Example A323], the EC50 [1] is reported as less than 5000 nM, the IC50 (NCI-H358 (K-Ras G12C)) is reported as less than 10 nM and the IC50 (K-Ras G12C) is reported as less than 10 nM. For the same compound, the IC50 (K-Ras G13C) was 100 to 1000 nM, the IC50 (KRAS G12S) was greater than 10000 nM and the IC50 (KRAS G12D) was greater than 10000 nM. The IC50 (KRAS G12V) was greater than 10000 nM, the IC50 (KRAS WT) was greater than 10000 nM and the IC50 (KRAS G13D) was greater than 10000 nM. For the same compound, the IC50 (NRAS G12C) was less than 10 nM.

CCn1c(-c2cccnc2[C@H](C)OC)c2c3cc(ccc31)-c1cccc(c1)C[C@H](NC(=O)[C@H](C(C)C)N1CCC3(CN(C(=O)C#CC(C)(C)N(C)C)C3)C1=O)C(=O)N1CCC[C@H](N1)C(=O)OCC(C)(C)C2 (atropisomer, axis not shown) [Example A324] was tested, and the EC50 [1] was less than 5000 nM, the IC50 (NCI-H358 (K-Ras G12C)) was less than 10 nM and the IC50 (K-Ras G12C) was less than 10 nM. It also gave an IC50 (K-Ras G13C) of 100 to 1000 nM, an IC50 (KRAS G12S) of 1000 to 10000 nM and an IC50 (KRAS G12D) greater than 10000 nM. For the same compound, the IC50 (KRAS G12V) was 1000 to 10000 nM, the IC50 (KRAS WT) was 1000 to 10000 nM and the IC50 (KRAS G13D) was greater than 10000 nM. For the same compound, the IC50 (NRAS G12C) was less than 10 nM.

CCn1c(-c2cccnc2[C@H](C)OC)c2c3cc(ccc31)-c1cccc(c1)C[C@H](NC(=O)[C@H](C(C)C)N(C)C(=O)[C@H]1CCN(C(=O)C#CC(C)(C)N3CCCC3)C1)C(=O)N1CCC[C@H](N1)C(=O)OCC(C)(C)C2 (atropisomer, axis not shown) [Example A326] was tested, and the EC50 [1] was less than 5000 nM, the IC50 (NCI-H358 (K-Ras G12C)) was less than 10 nM and the IC50 (K-Ras G12C) was less than 10 nM. For the same compound, the IC50 (K-Ras G13C) was 1000 to 10000 nM, the IC50 (KRAS G12S) was 1000 to 10000 nM and the IC50 (KRAS G12D) was 1000 to 10000 nM. For the same compound, the IC50 (KRAS G12V) was 1000 to 10000 nM, the IC50 (KRAS WT) was 1000 to 10000 nM and the IC50 (KRAS G13D) was 1000 to 10000 nM. It also gave an IC50 (NRAS G12C) of less than 10 nM.

In the case of C=CC(=O)N1CC[C@H](C(=O)N(C)[C@H](C(=O)N[C@H]2Cc3cccc(c3F)-c3ccc4c(c3)c(c(-c3cccnc3[C@H](C)OC)n4CC)CC(C)(C)COC(=O)[C@@H]3CCCN(N3)C2=O)C(C)C)C1 (atropisomer, axis not shown) [Example A327], the EC50 [1] is reported as less than 5000 nM, the IC50 (NCI-H358 (K-Ras G12C)) is reported as 10 to 100 nM and the IC50 (K-Ras G12C) is reported as 100 to 1000 nM. It also gave an IC50 (K-Ras G13C) of 1000 to 10000 nM, an IC50 (KRAS G12S) of 1000 to 10000 nM and an IC50 (KRAS G12D) greater than 10000 nM. It also gave an IC50 (KRAS G12V) greater than 10000 nM, an IC50 (KRAS WT) greater than 10000 nM and an IC50 (KRAS G13D) greater than 10000 nM. The IC50 (NRAS G12C) was 100 to 1000 nM.

Work on C=CC(=O)N1CCN(C(=O)N(C)[C@H](C(=O)N[C@H]2Cc3nc(cs3)-c3ccc4c(c3)c(c(-c3cccnc3[C@H](C)OC)n4CC)CC(C)(C)COC(=O)[C@@H]3CCCN(N3)C2=O)C(C)C)C2(CC2)C1 (atropisomer, axis not shown) [Example A395] yielded an EC50 [1] of less than 5000 nM, an IC50 (NCI-H358 (K-Ras G12C)) of less than 10 nM and an IC50 (K-Ras G12C) of 100 to 1000 nM. The IC50 (K-Ras G13C) was 100 to 1000 nM, the IC50 (KRAS G12S) was 100 to 1000 nM and the IC50 (KRAS G12D) was 1000 to 10000 nM. The IC50 (KRAS G12V) was 100 to 1000 nM, the IC50 (KRAS WT) was 100 to 1000 nM and the IC50 (KRAS G13D) was 100 to 1000 nM. It also gave an IC50 (NRAS G12C) of 100 to 1000 nM.
